The record followed here is patent US20240285594A1, “COMPOSITIONS AND METHODS FOR TREATING PAIN IN ANIMALS” (North Carolina State University, priority 2023, published 2024).

Values joined by “and” are separate entries in the source; they are usually repeats but may differ in a detail not shown here. Equal entries are not always repeated. “Also recorded” adds a separate entry of the source.

Data set [1] is described as follows: Cross-over plasma pharmacokinetics of intranasal versus intramuscular flunixin.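 Also: grower pigs about 8 weeks old weighing 18.0-22.0 kg, randomized cross-over of both routes separated by a 5-day washout, blood taken via jugular vein catheter.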
Protocol: (§1) Six female Yorkshire cross grower pigs approximately 8 weeks of age with no history of flunixin administration in a 30-day period were sourced from a production farm and enrolled in the study. The pigs were determined to be healthy by veterinary physical examination and pigs initially weighed between 18.0-22.0 kg. The pigs were individually housed in climate-controlled rooms with a 12:12 light dark cycle at the North Carolina State University College of Veterinary Medicine to prevent cross contamination between pigs and damage to jugular catheters. The pens had non-slip flooring, allowed the pigs to move freely, provided enrichment, and were cleaned at least twice daily. The pigs had ad libitum access to water via a nipple drinker and were fed 0.5 quarts of Nature's Match twice daily. […] From the time of arrival until the end of the study, the pigs were monitored at least twice daily for general appearance, attitude, appetite, and wellbeing.
(§2) To facilitate jugular catheter placement, the pigs were sedated with Telazol®, reconstituted with ketamine and xylazine as previously described, intubated, and maintained on gas isoflurane anesthesia. A 22-gauge, 10 cm intravenous catheter (MILA, International, Inc., Florence, KY, USA) was placed into the jugular vein using sterile technique. It was sutured in place with 3-0 nylon and covered in Ioban™ (3M, St. Paul, MN, USA) to prevent damage. The pigs wore custom jackets throughout the study to protect the catheters and an extension set was attached to allow for easy catheter access and restraint-free blood collection.
(§3) All pigs were randomized to determine the first administration route. Group 1 (n=3 pigs) and Group 2 (n=3 pigs) were used in a cross-over design and received 2.2 mg/kg flunixin (Banamine®-S, Merck Animal Health, Madison, NJ, USA) by either the IM or IN route. Following a 5-day washout period, the pigs were administered 2.2 mg/kg flunixin via the opposite route. IN administration was completed using a MAD600 MADgic laryngo-tracheal mucosal atomization device (Teleflex Medical, Morrisville, NC, USA). The luer lock syringe was attached to this device and drug was placed into the nostril. Before administration, 0.22 mL of the drug was added to the device to account for dead space volume. After the IN dose, pigs were encouraged to keep their heads raised for approximately 10 seconds to prevent leakage of the drug out of the nasal cavity. Intramuscular administration was performed in the omotransversarius muscle using a 20G needle.
(§4) Blood samples were collected at 0 (pre-treatment), 0.16, 0.33, 0.5, 0.75, 1, 1.5, 2, 3, 4, 6, 8, 12, 18, 24, 36, 48, and 60 hours post treatment. To avoid heparin contamination in samples, at least 1 mL of blood was collected as a purge sample before 1-2 mL of blood was collected and placed into lithium heparin tubes (BD Vacutainer, Franklin Lakes, NJ, USA). The purge blood was injected back into the catheter before the catheter was flushed with 3-4 mL of heparinized saline to prevent coagulation. The blood tubes were placed on ice for no more than 1 hour before they were processed. Plasma was separated by centrifugation at 3500×g for 10 minutes at 4° C., equally split between two cryovials, mixed, and stored at −80° C. until analysis.
(§5) To prepare samples, 100 μL of plasma was pipetted into a clean borosilicate glass tube (disposable culture tubes, CWR). To pretreat the plasma, 500 μL of 4% phosphoric acid prepared in water was added to each tube. Solid phase extraction was performed on an oasis prime HLB 96 well μElution plate (Waters Corporation, Milford, MA, USA). The plate was prepared by conditioning the plate with 500 μL of methanol followed by 500 μL of ultrapure water.
Data set [2] can be described thus: Plasma and interstitial fluid concentrations after intravenous or intranasal flunixin meglumine in cattle. The format is in vivo. The protocol:
FIG. 10: Plasma concentration versus time curve for individual cattle (n=4) following a single intravenous dose of flunixin meglumine at 2.2 mg/kg. Samples were simultaneously collected from the opposite jugular vein (via pre-placed catheter) and a pre-placed portal vein catheter. Some variability is observed between sampling sites (jugular vs. portal vein) but overall concentrations and trend are similar over time.
FIG. 11: Plasma concentration versus time curve for individual cattle (n=4) following a single intranasal dose of flunixin meglumine at 2.2 mg/kg. Samples were simultaneously collected from a jugular vein catheter and a pre-placed portal vein catheter. Overall, plasma concentrations are lower following intranasal administration, and the jugular sampling site overestimates systemic concentrations especially following the first 1 hour after administration.
FIG. 12: Interstitial fluid concentration versus time curve for individual cattle (n=4) following a single intranasal (n=2) or intravenous (n=2) dose of flunixin meglumine at 2.2 mg/kg. Samples were collected using an in vivo ultrafiltration collection device and represent tissue unbound concentrations of flunixin. There is systemic absorption following both intravenous and intranasal routes of administration, with tissue concentrations of flunixin detected for at least 24 hours following a single dose.

The test system of another data set is cortisol. Nature of the data set: Serum cortisol after surgical or sham castration of piglets (Part I, physiological assessment). The format is in vivo. Here is the method: A total of 197 Large White×Duroc cross male piglets from 35 litters were enrolled in the study (Table 1). Piglets were individually identified using ear tags (Allflex Global Piglet ear tags, Allflex Livestock Intelligence, Madison, WI), weighed and randomly allocated to one of eight treatment groups (FIG. 1).
Lidocaine was buffered by mixing 2 ml of 8.4% Sodium Bicarbonate to 20 ml of 2% lidocaine HCl injectable solution to achieve a pH of 6.8 (Lidocaine Hydrochloride, Covetrus, Dublin, Ohio, US). […] Piglets were held by both rear legs by one caretaker with the abdomen facing the individual administrating treatment. Buffered lidocaine was injected intra-inguinally (Picture 1) by a second caretaker using a ½ inch needle (Ideal® D3 20 Gauge, Neogen, Lansing, MI) inserted into a syringe (Prima Tech® 2 cc Bottle Mount Vaccinator, Prima Tech USA, Kenansville, NC). A total of 1.5 ml of buffered lidocaine per injection site was administered intramuscularly (IM) into each inguinal canal (left and right) at a 40-degree angle 5-7 cm from the scrotum and 2-3 cm from the abdominal wall. Piglets enrolled in the control treatment (C, S, CF, SF−T1: (C) Castration plus physiological saline (IM and IN; n=25); T2: (S) Sham plus physiological saline (IM and IN; n=25); T5: (CF) Castration plus flunixin (IN; n=25); T6: (SF) Sham plus flunixin (IN; n=24)) were handled in an identical manner and 1.5 ml of sterile saline was injected in the same two locations as described previously.
Immediately following intra-inguinal injection, piglets enrolled in the FM treatment groups were held in sternal recumbency by one individual and 2.2 mg/kg (Banamine®, Merck Animal Health, Madison, NJ, US) was administered in one nostril using was a MAD® nasal intranasal mucosal atomization device (Telefex Incorporated, Wayne, PA, US) attached to a Prima Tech® 0.5 cc bottle mount vaccinator. The same individual administered the treatment by gently holding the piglet's snout using their non-dominant hand to steady the head and administered the drug with the other hand. Piglets in the control group were handled in the same manner in an equivalent volume of 0.2 ml of sterile saline was administered as described above.
Castration was performed by one trained caretaker from the farm. Piglets were picked up, individually held by both hind legs with head down, and two vertical incisions were made through the skin of the scrotum over each testicle using a scalpel blade. Once the incisions were made, testicles were exposed, spermatic cords cut, and testicles were completely removed by traction. A sham castration was performed to mimic similar handling conditions in which piglets were picked up, held in the same manner, and had pressure applied to the scrotal area by the same individual responsible for castration.
Blood was collected 24 h prior to (−24 h), 1 h (1 h), and 24 h post castration (24 h, FIG. 2). Blood samples were collected using the technique described in other studies. The orbital sinus cavity was punctured using an Excel® disposable hypodermic needle 20G (Exel International, Quebec, Canada) and deposited into a 4 ml BD® red vacutainer serum tube (Med Vet International, Mettawa, IL). All tubes were maintained in a cooler and centrifuged (2,000×g for 15 min at 4° C.) no more than eight hours post-collection to separate serum. […]
Serum cortisol concentrations were quantified using a commercially available EIA kit (Arbor Assays DetectX Cortisol EIA Kit, Product #K003). […]

The conditions of data set [3]: female, Yorkshire cross, pig, in vivo, 2.2 mg/kg.
Protocol: as §1, §2, §3, §4, §5
A further data set relates to prostaglandin E2 (PGE2). Kind of data set: Serum PGE2 after castration of piglets (Example 3). The format is in vivo. Here is the method: Pairwise comparisons of treatments at −24 h: P≥0.77. […] Pairwise comparisons of treatments at 24 h post-castration: P≥0.11.
The objective of this study was to evaluate the effects of intranasal flunixin and intra-inguinal lidocaine application on the castration associated inflammatory response in piglets, as described in Example 1.

Where [4] appears, read: intramuscular 2.2 mg/kg, six grower pigs, plasma, median.
Where [5] appears, read: intranasal 2.2 mg/kg, six grower pigs, plasma, median.

Consider `Cc1c(Nc2ncccc2C(=O)O)cccc1C(F)(F)F` [flunixin meglumine], for which the “AUCinf of IM administration” value in data set [1] (2.2 mg/kg IM, individual grower pig (Pig # 1-6, one line per pig), unit not given) was 7.63 and 6.25 and 7.82 and 8.54 and 5.29 and 4.99. The “AUCinf of IN administration” value in data set [1] (2.2 mg/kg IN, individual grower pig (Pig # 1-6, one line per pig), unit not given) was 2.98 and 8.90 and 7.07 and 4.98 and 4.74. For the same molecule, the “AUC Extrap” value in data set [1] (setting [4]) is listed as 0.3%; in data set [1] (setting [5]), 0.5%. Moreover, the λz in data set [1] (setting [4]) came to 0.1 h⁻¹; in data set [1] (setting [5]), 0.09 h⁻¹. Further, in data set [1] (setting [5]), the AUCinf was determined as 4900 ng·h/mL. Moreover, in data set [1] (setting [5]), the HLλz worked out at 7.4 h. Also, in data set [2] (cattle (n=4), single intranasal dose 2.2 mg/kg, compared with intravenous), the plasma concentrations result was “lower”. For the same molecule, in data set [2] (cattle, single intranasal or intravenous dose 2.2 mg/kg), the “time tissue (interstitial fluid, unbound) concentrations were detected” value is on record as “at least 24 hours”. For the same molecule, the cortisol concentrations entry in the data set with cortisol (1 h, sham castrated piglets (SF and SLF)) is reported as “lowest cortisol concentrations”; in the data set on cortisol (1 h post-castration, castrated piglets, compared to C (saline) and CL, FM 2.2 mg/kg intranasal, buffered lidocaine intra-inguinal, listed as FM), “lower cortisol concentrations; also recorded: decreased cortisol concentrations; also recorded: effectively reduce”; in the data set on cortisol (24 h post-castration, between treatments), “not effective”. In addition, the “time flunixin was detectable in plasma post-administration” value in data set [3] was “up to 60 hours”. In addition, the “serum PGE2 concentrations” value in the data set with prostaglandin E2 (PGE2) (1 h post-castration, castrated and non-castrated piglets, flunixin 2.2 mg/kg IN vs piglets without the drug) is given as “lower serum PGE2 concentrations; also recorded: effective”; in the data set on prostaglandin E2 (PGE2) (24 h post castration, vs other treatments) it was “no observed differences; also recorded: not effective”.
